This note sets out measurements from patent US9994533B2, “Method of preparing ATG's analogue, and the application of ATG and it's analogue” (Longhua Hospital Shanghai University of Traditional Chinese …, priority 2016, dated 2018).

Experiment [1] deals with T1, PP2AB (Homo sapiens, UniProt P62714).
T1 construct: endogenous in cells; host or cells: 293T
Briefly: DARTS-western blot of ATG binding to PP2A in 293T cells. Conditions: ATG 100, 300, 1000 μM, pronase 1:1000, FIG. 1. How it is done: We used ATG to stimulate 293T cells. […] The applied ATG was formulated at 3 different concentrations: 100 μM, 300 μM, 1000 μM. So there are 5 groups of Western Blot: blank group (without addition of pronase), DMSO (pronase 1:1000), ATG 100 μM (pronase 1:1000), ATG 300 μM (pronase 1:1000), ATG 1000 μM (Pronase 1:1000). […] While pronase can digest proteins, it digests more ATG-unbinding proteins than ATG-binding proteins. […] This method is called DARTS.
In FIG. 1: DARTS-western blot confirmed the binding of ATG to PP2AB; PP2A had three structural units, and ATG bound to the catalytic unit. The catalyst unit of the protein called PP2AB, the gene called PPP2CB.

In experiment [2] the test system is NOX4. Briefly: NOX4 protein expression in mouse primary endothelial cells under high glucose (Western blot). The class given is cell-based. The source says:
The detection method of Western Blot and mRNA used in the present embodiment is a detection method commonly used by person skilled in the art, and the specific detection method is described in “Molecular Biology Laboratory Manual” (People's Military Medical Press, published in 2011 Jun. 1). 3.2 Western blot and Realtime PCR confirmed that ATG could inhibit the overexpression of NOX4 in mouse's primary endothelial cells. The dose of 1 and 10 μmol/L corresponds to the last two bands.
For orientation: A western blot detects proteins with antibodies after separation by electrophoresis.

Experiment [3] deals with diabetic kidney disease mice. Briefly: Proteinuria in STZ-induced diabetic nephropathy mice. It counts as in vivo. Conditions: 40 mg/kg oral once daily. How it is done: When the mice were 6 weeks of age, streptozotocin (STZ)-induced diabetic nephropathy models were started by tail vein injection. The specific method is: STZ in accordance with the amount of 50 mg/kg is injected in tail vein. 72 hours after the injection, determine whether the modeling is successful by determining the level of blood glucose and urine. When the blood glucose level is more than 16 mmol/L and urine glucose level is between +++ and ++++, the model was considered successful. After 10 weeks of STZ injection, ATG was orally administered at a dose of 40 mg/kg once daily. The control group was given the same volume of DMSO (dimethyl sulfoxide) orally. Treatment was for 8 weeks. Urine protein levels were measured in each group. The number of the mice in each group is 10 in Table 3. […] ACEI: angiotensin converting enzyme inhibitors; ARBs: angiotensin receptor blockers.

T1 sequence (P62714 whole entry): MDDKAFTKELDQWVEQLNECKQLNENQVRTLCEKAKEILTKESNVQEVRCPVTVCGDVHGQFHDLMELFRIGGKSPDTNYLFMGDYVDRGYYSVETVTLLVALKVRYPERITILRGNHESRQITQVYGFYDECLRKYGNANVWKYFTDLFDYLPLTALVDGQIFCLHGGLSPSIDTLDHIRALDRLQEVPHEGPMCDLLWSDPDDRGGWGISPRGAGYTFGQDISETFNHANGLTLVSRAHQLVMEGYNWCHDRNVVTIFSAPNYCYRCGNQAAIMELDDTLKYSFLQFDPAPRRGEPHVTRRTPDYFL

Turning to `COc1cc(C[C@H]2C(=O)OC[C@@H]2Cc2ccc(OC)c(OC)c2)ccc1O` [ATG, Arctigenin], the “PP2A binding (DARTS-western blot)” value in experiment [1] is “PP2A binding increased with the increasing concentration of ATG”. Also, the “NOX4/B-Tubulin Mean” value in experiment [2] (ATG 1 uM) is 0.18; in experiment [2] (ATG 10 uM), 0.12. The “proteinuria (urine protein level)” value was determined as 0.98 in experiment [3] (Model group - ATG (STZ mice), 0 week); 0.95 in experiment [3] (Model group - ATG (STZ mice), 1 week); 1.10 in experiment [3] (Model group - ATG (STZ mice), 2 week); 0.66 in experiment [3] (Model group - ATG (STZ mice), 3 week); 0.66 in experiment [3] (Model group - ATG (STZ mice), 4 week); 0.37 in experiment [3] (Model group - ATG (STZ mice), 5 week). Besides, the “proteinuria (urine protein level)” value was determined as 0.22 in experiment [3] (Model group - ATG (STZ mice), 6 week); 0.18 in experiment [3] (Model group - ATG (STZ mice), 7 week); 0.18 in experiment [3] (Model group - ATG (STZ mice), 8 week); 0.12 in experiment [3] (Normal group - ATG, 0 week); 0.11 in experiment [3] (Normal group - ATG, 1 week); 0.18 in experiment [3] (Normal group - ATG, 2 week). Besides, the “proteinuria (urine protein level)” value in experiment [3] (Normal group - ATG, 3 week) is given as 0.12; in experiment [3] (Normal group - ATG, 4 week) it was 0.16; in experiment [3] (Normal group - ATG, 5 week), 0.18; in experiment [3] (Normal group - ATG, 6 week), 0.12; in experiment [3] (Normal group - ATG, 7 week), 0.14; in experiment [3] (Normal group - ATG, 8 week), 0.13. Also, the effect on proteinuria entry in experiment [3] (STZ mice, 8 weeks) was “significantly reduces proteinuria”. Also, the “effect on proteinuria compared with ACEI/ARBs” value in experiment [3] (STZ mice, 8 weeks) was “superior to the ACEI/ARBs”.
